From patent US20250223268A1, “4-Methylsulfonylbenzamide Compound, Preparation Method, Herbicidal Composition And Use” (Jiangsu Flag Chemical Industry Co., Ltd., priority 2022, published 2025)

Assays:
Assay in all cases: Greenhouse herbicidal activity assay, post-emergence
Type in all cases: in vivo
[1] = tested on: Leptochloa chinensis; details: Post-emergence test, rate 150 g a.i./hm^2; grade by fresh weight inhibition rate
From the text: (§1) Post-emergence: Seeds of gramineous weeds (Echinochloa crusgalli, Echinochloa crusgalli var. zelayensis, Echinochloa phyllopogon, Eleusine indica, Digitaria sanguinalis, Leptochloa chinensis, Setaria viridis, Alopecurus japonicus Steud, Beckmannia syzigachne, Polypogon fugax, Alopecurus aequalis, Lolium multiflorum, Poa annua, Aegilops tataschii, Avena fatua, Alopecurus myosuroides, Bromus japonicus), broadleaf weeds (Eclipta prostrata, Amaranthus retroflexus, Rorippa indica, Myosoton aquaticum, Veronica didyma, Galium aparine, Solanum nigrum, Xanthium sibiricum, Conyza canadensis, Sesbania cannabina, Sagittaria trifolia), and Cyperus iria (Cyperus iria, Scirpus juncoides, Cyperus difformis, etc.) were sown in plastic pots (7 cm diameter) with nutrient soil and bottom holes. Crop seeds (including Oryza sativa subsp. indica, Oryza sativa subsp. japonica, Oryza sativa L. var. Glutinosa matsum, Triticum aestivum, Zea mays, Sorghum bicolor, Setaria italica, Glycine max, Gossypium hirsutum, Brassica napus, Arachis hypogaea) were sown in plastic pots (10 cm diameter) with nutrient soil and bottom holes. After sowing, the pots were placed in the growth chamber until the plants reached the 3-6 leaf stage for foliar spraying. Post-treatment, the materials were air-dried naturally and returned to the growth chamber. Results were assessed 14-21 days later.
(§2) • A: Fresh weight inhibition rate≥80% to 100%; • B: Fresh weight inhibition rate[…] to <80%; • C: Fresh weight inhibition rate≥40% to <60%; • D: Fresh weight inhibition rate≥20% to <40%; • E: Fresh weight inhibition rate<20%; • NT: Not tested.

[2] = tested on: Cyperus iria; details: Post-emergence test, rate 150 g a.i./hm^2, grade by fresh weight inhibition rate; for pest or weed control at 150 g/ha: Cyperus iria, read-out: Control efficacy grade, Cyperus iria
From the text: as §1, §2

[3] = tested on: Echinochloa crusgalli; details: Post-emergence test, rate 150 g a.i./hm^2; grade by fresh weight inhibition rate
From the text: as §1, §2

[4] = tested on: Eclipta prostrata; details: Post-emergence test, rate 150 g a.i./hm^2, grade by fresh weight inhibition rate; for pest or weed control at 150 g/ha: Eclipta prostrata, read-out: Control efficacy grade, Eclipta prostrata
From the text: as §1, §2

SMILES	Control efficacy grade, Leptochloa chinensis [1]	Control efficacy grade, Cyperus iria [2]	Control efficacy grade, Eclipta prostrata [4]	also measured
CCCCSc1c(S(C)(=O)=O)ccc(C(=O)Nc2nnc(CC)o2)c1Cl [Compound 3-393]	B (Fresh weight inhibition rate≥260% to <80%)	A (Fresh weight inhibition rate≥80% to 100%)	–	–
Cc1nonc1NC(=O)c1ccc(S(C)(=O)=O)c(SC(C)C)c1Cl [Compound 4-6]	A (Fresh weight inhibition rate≥80% to 100%)	–	–	–
CC(C)c1nnc(N(C)C(=O)c2ccc(S(C)(=O)=O)c([S+]([O-])C(C)C)c2Cl)o1 (racemic) [Compound 3-808]	–	–	–	Control efficacy grade, Echinochloa crusgalli [3]: B (Fresh weight inhibition rate≥260% to <80%)
Cc1nnc(N(C)C(=O)c2ccc(S(C)(=O)=O)c([S+]([O-])CCCl)c2Cl)o1 (racemic) [Compound 3-835]	–	–	–	Control efficacy grade, Echinochloa crusgalli [3]: A (Fresh weight inhibition rate≥80% to 100%)
CS(=O)(=O)c1ccc(C(=O)Nc2nnco2)c(Cl)c1S(=O)(=O)CCCl [Compound 3-382]	A (Fresh weight inhibition rate≥80% to 100%)	–	–	–
CC(C)c1nnc(NC(=O)c2ccc(S(C)(=O)=O)c([S+]([O-])C(C)C)c2Cl)o1 (racemic) [Compound 3-505]	A (Fresh weight inhibition rate≥80% to 100%)	A (Fresh weight inhibition rate≥80% to 100%)	A (Fresh weight inhibition rate≥80% to 100%)	–
CC(C)CS(=O)(=O)c1c(S(C)(=O)=O)ccc(C(=O)Nc2nnco2)c1Cl [Compound 3-297]	B (Fresh weight inhibition rate≥260% to <80%)	A (Fresh weight inhibition rate≥80% to 100%)	A (Fresh weight inhibition rate≥80% to 100%)	–
Cn1ncnc1NC(=O)c1ccc(S(C)(=O)=O)c(SC2CCCC2)c1Cl [Compound 2-42]	A (Fresh weight inhibition rate≥80% to 100%)	A (Fresh weight inhibition rate≥80% to 100%)	A (Fresh weight inhibition rate≥80% to 100%)	–
C=CC[S+]([O-])c1c(S(C)(=O)=O)ccc(C(=O)Nc2nnc(C(C)C)o2)c1Cl (racemic) [Compound 3-571]	–	A (Fresh weight inhibition rate≥80% to 100%)	A (Fresh weight inhibition rate≥80% to 100%)	–
CCC(C)[S+]([O-])c1c(S(C)(=O)=O)ccc(C(=O)Nc2nonc2C)c1Cl (mixture of isomers) [Compound 4-19]	A (Fresh weight inhibition rate≥80% to 100%)	A (Fresh weight inhibition rate≥80% to 100%)	A (Fresh weight inhibition rate≥80% to 100%)	–
Cc1nnc(N(C)C(=O)c2ccc(S(C)(=O)=O)c([S+]([O-])CC(F)(F)F)c2Cl)o1 (racemic) [Compound 3-832]	–	–	–	Control efficacy grade, Echinochloa crusgalli [3]: A (Fresh weight inhibition rate≥80% to 100%)
C=CCSc1c(S(C)(=O)=O)ccc(C(=O)Nc2nnc(C(C)C)o2)c1Cl [Compound 3-570]	B (Fresh weight inhibition rate≥260% to <80%)	A (Fresh weight inhibition rate≥80% to 100%)	A (Fresh weight inhibition rate≥80% to 100%)	–
CCC[S+]([O-])c1c(S(C)(=O)=O)ccc(C(=O)N(C)c2nonc2C)c1Cl (stereo not drawn) [Compound 4-272, 2-chloro-N-methyl-N-(4-methyl-1,2,5-oxadiazol-3-yl)-4-(methylsulfonyl)-3-(propylsulfinyl)benzamide]	–	–	–	pest or weed control at 150 g/ha [4]: 80 to 100%; pest or weed control at 150 g/ha [2]: 80 to 100%
CCC(C)Sc1c(S(C)(=O)=O)ccc(C(=O)Nc2ncnn2C)c1Cl (racemic) [Compound 2-16]	A (Fresh weight inhibition rate≥80% to 100%)	A (Fresh weight inhibition rate≥80% to 100%)	A (Fresh weight inhibition rate≥80% to 100%)	–
CCCCS(=O)(=O)c1c(S(C)(=O)=O)ccc(C(=O)Nc2nnc(CC)o2)c1Cl [Compound 3-397]	–	A (Fresh weight inhibition rate≥80% to 100%)	A (Fresh weight inhibition rate≥80% to 100%)	–
CCc1nnc(NC(=O)c2ccc(S(C)(=O)=O)c(S(=O)(=O)CCCl)c2Cl)o1 [Compound 3-498]	A (Fresh weight inhibition rate≥80% to 100%)	–	–	–

SMILES	Control efficacy grade, Leptochloa chinensis [1]	Control efficacy grade, Cyperus iria [2]	Control efficacy grade, Eclipta prostrata [4]	also measured
CC(C)[S+]([O-])c1c(S(C)(=O)=O)ccc(C(=O)N(C)c2nnc(C3CC3)o2)c1Cl (racemic) [Compound 3-809]	–	–	–	Control efficacy grade, Echinochloa crusgalli [3]: B (Fresh weight inhibition rate≥260% to <80%)
CCCSc1c(S(C)(=O)=O)ccc(C(=O)Nc2nnc(C(C)C)o2)c1Cl [Compound 3-499, 2-chloro-N-(5-isopropyl-1,3,4-oxadiazol-2-yl)-4-(methylsulfonyl)-3-(propylthio)benzamide]	–	–	–	pest or weed control at 150 g/ha [2]: 80 to 100%
CCc1nnc(N(C)C(=O)c2ccc(S(C)(=O)=O)c([S+]([O-])C3CC3)c2Cl)o1 (racemic) [Compound 3-813]	B (Fresh weight inhibition rate≥260% to <80%)	B (Fresh weight inhibition rate≥260% to <80%)	A (Fresh weight inhibition rate≥80% to 100%)	–
Cc1nnc(NC(=O)c2ccc(S(C)(=O)=O)c(SC3CCCCC3)c2Cl)o1 [Compound 3-92]	–	A (Fresh weight inhibition rate≥80% to 100%)	–	–
CCC(C)[S+]([O-])c1c(S(C)(=O)=O)ccc(C(=O)Nc2nnc(C(C)C)o2)c1Cl (mixture of isomers) [Compound 3-517]	A (Fresh weight inhibition rate≥80% to 100%)	B (Fresh weight inhibition rate≥260% to <80%)	A (Fresh weight inhibition rate≥80% to 100%)	–
Cc1nnc(NC(=O)c2ccc(S(C)(=O)=O)c([S+]([O-])CC(F)(F)C(F)(F)F)c2Cl)o1 (racemic) [Compound 3-173]	A (Fresh weight inhibition rate≥80% to 100%)	–	–	–
CCCCS(=O)(=O)c1c(S(C)(=O)=O)ccc(C(=O)Nc2nnco2)c1Cl [Compound 3-281]	A (Fresh weight inhibition rate≥80% to 100%)	A (Fresh weight inhibition rate≥80% to 100%)	A (Fresh weight inhibition rate≥80% to 100%)	–
Cc1nnc(NC(=O)c2ccc(S(C)(=O)=O)c(SCc3ccccc3)c2Cl)o1 [Compound 3-67]	–	A (Fresh weight inhibition rate≥80% to 100%)	–	–
Cc1nnc(NC(=O)c2ccc(S(C)(=O)=O)c([S+]([O-])CCC#N)c2Cl)o1 (racemic) [Compound 3-198]	A (Fresh weight inhibition rate≥80% to 100%)	A (Fresh weight inhibition rate≥80% to 100%)	A (Fresh weight inhibition rate≥80% to 100%)	–
CCCS(=O)(=O)c1c(S(C)(=O)=O)ccc(C(=O)Nc2nonc2C)c1Cl [Compound 4-5, 2-chloro-N-(4-methyl-1,2,5-oxadiazol-3-yl)-4-(methylsulfonyl)-3-(propylsulfonyl)benzamide]	–	–	–	pest or weed control at 150 g/ha [4]: 80 to 100%; pest or weed control at 150 g/ha [2]: 80 to 100%
Cc1nonc1NC(=O)c1ccc(S(C)(=O)=O)c(S(=O)(=O)CC2CC2)c1Cl [Compound 4-36, 2-chloro-3-((cyclopropylmethyl)sulfonyl)-N-(4-methyl-1,2,5-oxadiazol-3-yl)-4-(methylsulfonyl)benzamide]	–	–	–	pest or weed control at 150 g/ha [2]: 80 to 100%
CCC(C)Sc1c(S(C)(=O)=O)ccc(C(=O)Nc2nonc2C)c1Cl (racemic) [Compound 4-16]	–	A (Fresh weight inhibition rate≥80% to 100%)	–	–
C#CC[S+]([O-])c1c(S(C)(=O)=O)ccc(C(=O)Nc2nnc(C)o2)c1Cl (racemic) [Compound 3-148]	A (Fresh weight inhibition rate≥80% to 100%)	–	–	–
Cc1nonc1NC(=O)c1ccc(S(C)(=O)=O)c(SCC2CC2)c1Cl [Compound 4-32, 2-chloro-3-((cyclopropylmethyl)thio)-N-(4-meth 1-1,2,5-oxadiazol-3-yl)-4-(methylsulfonyl)benzamide]	–	–	–	pest or weed control at 150 g/ha [2]: 80 to 100%
CCc1nnc(NC(=O)c2ccc(S(C)(=O)=O)c(S(=O)(=O)CC(C)C)c2Cl)o1 [Compound 3-413]	A (Fresh weight inhibition rate≥80% to 100%)	A (Fresh weight inhibition rate≥80% to 100%)	A (Fresh weight inhibition rate≥80% to 100%)	–
CCCS(=O)(=O)c1c(S(C)(=O)=O)ccc(C(=O)N(C)c2nnnn2C)c1Cl [Compound 1-101]	B (Fresh weight inhibition rate≥260% to <80%)	–	A (Fresh weight inhibition rate≥80% to 100%)	–
